# Test results taken from patent EP3009422A1, “Photo-switchable sulfonylureas and their uses” (Ludwig-Maximilians-Universität München, priority 2014, dated 2016).
# “Also recorded” adds a separate entry of the source.
# Assays:
# [1] = Water solubility on dilution from DMSO stock; format: physicochemical; settings: kinetic from dmso stock, diluted from a 50 mM stock solution in DMSO
# [2] = molecular target: T1, SUR1 (Rattus norvegicus, UniProt Q09429); experiment: [3H]-glibenclamide displacement radioassay in SUR1-expressing HEK293t cells; format: binding
# T1 construct: expressed in transfected cells; host or cells: HEK293t
# Procedure: SUR1-expressing HEK293t cells were harvested and washed twice in assaying buffer containing in mM: 119 NaCl, 4.7 KCl, […], 1.2 KH2PO4, 1.2 MgSO4, 5 NaHCO3, and 20 HEPES, pH 7.4. In a 96-well plate, ∼200,000 cells/well were incubated for 50 min with [3H]-glibenclamide (PerkinElmer) and different concentrations of glimepiride (Sigma-Aldrich) or JB253. Incubation was terminated by rapid filtration through Whatman GF/C filters by means of a Brandel MWXR-96 TI harvester and filters were washed 3 times with ice-cold assay buffer. Radioactivity was counted 6 h after cell and filter lysis in 200 µL Rotiszint EcoPlus (Roth) using a Packard microbeta scintillation counter (PerkinElmer).
# (§1) Data distribution was determined using the D'Agostino omnibus test. Non-multifactorial pairwise comparisons were made using either the Student's t-test. Interactions between multiple treatments were assessed using one-way ANOVA followed by pairwise comparisons using Bonferroni's post-hoc test. Effect sizes in islets/cells are usually sufficiently large that multiple animals/independent replication is a more important determinant of power in studies requiring statistical comparison. Non-linear regression was used to calculate the EC50 of normalized and log-transformed concentration-response curves. For [3H]-glibenclamide displacement assays, data points were fitted to the Hill equation before calculation of the halfmax value. In all cases, analysis was performed using Graphpad Prism (Graphpad Software) and IgorPro, and experimental numbers reported as independent biological replicates. No animals or data were excluded from the analysis and results were considered significant at P<0.05.
# [3] = pKa measurement, absorbance-based platereader assay; format: physicochemical; settings: DMSO/buffer mixture (1/1), pH 3.33-6.33, sigmoidal fitting, n = 3 assays
# Procedure: Extinction coefficients were measured on a BMG Labtech Omega Series FLUOstar microplate reader with clear flat-bottom white 96 wellplates by full spectra acquirement in low K^+ external bath buffer (containing in mM: 3 KCl, 118 NaCl, 25 NaHCO3, 2 CaCl2, 1 MgCl2, 10 HEPES; NaOH to pH 7.4). All JB253-containing solutions (dilution series, n = 4: 10 nM; 100 nM; 1 µM; 10 µM; 25 µM; 50 µM) were background substracted and fitted with a linear slope. […] Full absorbance spectra (280-800 nm) were acquired and background subtracted before spectral differences were calculated. The total change of maximal positive and maximal negative difference was calculated and plotted against pH. Sigmoidal fit of the obtained plot gave access to the pKa.
# [4] = tested on: mouse islets; experiment: Calcium imaging (fMCI) of beta cell activity in intact mouse islets; format: cell-based; settings: mouse islets
# Procedure: Male and female CD1 and C57BL6 mice (8-20 weeks) were maintained in a specific pathogen-free facility under a 12h light-dark cycle with ad libitum access to water and food. Animals were euthanized using a schedule-1 method and pancreatic islets isolated by collagenase digestion. All procedures were regulated by the Home Office according to the Animals (Scientific Procedures) Act 1986 of the United Kingdom (PPL 70/7349), and study approval granted by the Animal Welfare and Ethical Review Body (AWERB) of Imperial College. No randomization was used for animal experimentation, since mice were only used as tissue donors.
# Islets were loaded for 30-45 min in fluo2-AM (10 µM) or for 2-5 min with X-Rhod 1 (5 µM) diluted with a mixture of DMSO (0.01%, wt/vol) and pluronic acid (0.001%, wt/vol; all Invitrogen) in a bicarbonate buffer containing in mM: 120 NaCl, 4.8 KCl, 1.25 NaH2PO4, 24 NaHCO3, 2.5 CaCl2, 1.2 MgCl2 and 5 D-glucose. fMCI was performed using a Zeiss Axiovert M200 fitted with a Nipkow spinning-disk head (Yokogawa CSU-10) and a 10x/0.3NA objective adjusted for chromatic aberration (EC Plan-Neofluar, Zeiss). Pulsed excitation (frequency = 0.5 Hz; exposure = 263 ms) was delivered at 491 nm and emitted signals recorded at 500-550 nm with a back-illuminated 16-bit EM-CCD camera (ImageEM 9100-13; Hamamatsu). During recording, islets were maintained at 35-36 °C in the presence of 50 µM JB253 using a custom-manufactured perfusion and heating system (Digital Pixel). Drugs were introduced through the perfusion system at the indicated time points and concentrations. Violet light was delivered by a 405 ± 5 nm laser coupled to the side port of the microscope and configured to fill the back of the objective with light using an Optospot (Cairn Research). Blue light was delivered using 440 ± 5 nm and 491 ± 5 nm diode lasers controlled by a laser merge module (Spectral Applied Research) to allow simultaneous exposure and acquisition. For single islet targeting, a 473 ± 5 nm laser was coupled to a custom-manufactured dichroic array (Cairn Research), allowing user-directed steering of a collimated laser spot across the field of view. Signals were normalized using F/Fmin where F is fluorescence at a given timepoint and Fmin is minimum fluorescence.
# as §1
# [5] = tested on: islets; experiment: Cytotoxicity assay (calcein-AM / propidium iodide) in islets; format: cell-based; settings: 1 hr incubation, n = 28 islets from four animals
# Procedure: Islets were incubated with either DMSO or JB253 for 1 hr before staining with 3 µM of calcein-AM (live) and 2.5 µM of propidium iodide (dead). Absorbance/emission was detected at 491/525 nm and 561/620 nm for calcein and PI, respectively. The area of dead:live cells was calculated as a unitary ratio and the observer blinded to treatment identity.
# [6] = tested on: KATP channels; experiment: Whole cell patch clamp of KATP currents in MIN6 beta cells; format: cell-based; settings: illumination 470 ± 20 nm, JB253 concentration printed as 10 mM
# Procedure: MIN6 cells (obtained from Dr Jun-ichi Miyazaki, Osaka University, see Miyazaki et al., 1990)) were cultured in DMEM supplemented with 15% FBS, 1% glutamine, 2% HEPES buffer, 0.0005% β-mercaptoethanol and 1% penicillin/streptomycin. Cells were seeded onto glass coverslips 24 hrs before whole cell patch clamp experiments using micropipettes generated from thin-walled borosilicate capillaries (3-6 MΩ). Bath solution contained in mM: 3 KCl, 118 NaCl, 25 HEPES, 3 MgCl2 and 2 CaCl2. Pipette solution contained in mM: 150 KCl, 3 MgCl2, 5 EGTA, 10 HEPES, 0.3 K2ATP (pH 7.2), and the holding potential was -60 mV. Illumination was provided using a X-Cite 120 mercury arc lamp (Lumen Dynamics) with a bandpass filter (470 ± 20 nm). Voltage ramps from -20 mV to -120 mV (500 ms duration) were applied every 5 s to produce current-voltage relationships in the presence and absence of JB253. All cells lines were regularly mycoplasma tested.
# T1 sequence (Q09429 whole entry): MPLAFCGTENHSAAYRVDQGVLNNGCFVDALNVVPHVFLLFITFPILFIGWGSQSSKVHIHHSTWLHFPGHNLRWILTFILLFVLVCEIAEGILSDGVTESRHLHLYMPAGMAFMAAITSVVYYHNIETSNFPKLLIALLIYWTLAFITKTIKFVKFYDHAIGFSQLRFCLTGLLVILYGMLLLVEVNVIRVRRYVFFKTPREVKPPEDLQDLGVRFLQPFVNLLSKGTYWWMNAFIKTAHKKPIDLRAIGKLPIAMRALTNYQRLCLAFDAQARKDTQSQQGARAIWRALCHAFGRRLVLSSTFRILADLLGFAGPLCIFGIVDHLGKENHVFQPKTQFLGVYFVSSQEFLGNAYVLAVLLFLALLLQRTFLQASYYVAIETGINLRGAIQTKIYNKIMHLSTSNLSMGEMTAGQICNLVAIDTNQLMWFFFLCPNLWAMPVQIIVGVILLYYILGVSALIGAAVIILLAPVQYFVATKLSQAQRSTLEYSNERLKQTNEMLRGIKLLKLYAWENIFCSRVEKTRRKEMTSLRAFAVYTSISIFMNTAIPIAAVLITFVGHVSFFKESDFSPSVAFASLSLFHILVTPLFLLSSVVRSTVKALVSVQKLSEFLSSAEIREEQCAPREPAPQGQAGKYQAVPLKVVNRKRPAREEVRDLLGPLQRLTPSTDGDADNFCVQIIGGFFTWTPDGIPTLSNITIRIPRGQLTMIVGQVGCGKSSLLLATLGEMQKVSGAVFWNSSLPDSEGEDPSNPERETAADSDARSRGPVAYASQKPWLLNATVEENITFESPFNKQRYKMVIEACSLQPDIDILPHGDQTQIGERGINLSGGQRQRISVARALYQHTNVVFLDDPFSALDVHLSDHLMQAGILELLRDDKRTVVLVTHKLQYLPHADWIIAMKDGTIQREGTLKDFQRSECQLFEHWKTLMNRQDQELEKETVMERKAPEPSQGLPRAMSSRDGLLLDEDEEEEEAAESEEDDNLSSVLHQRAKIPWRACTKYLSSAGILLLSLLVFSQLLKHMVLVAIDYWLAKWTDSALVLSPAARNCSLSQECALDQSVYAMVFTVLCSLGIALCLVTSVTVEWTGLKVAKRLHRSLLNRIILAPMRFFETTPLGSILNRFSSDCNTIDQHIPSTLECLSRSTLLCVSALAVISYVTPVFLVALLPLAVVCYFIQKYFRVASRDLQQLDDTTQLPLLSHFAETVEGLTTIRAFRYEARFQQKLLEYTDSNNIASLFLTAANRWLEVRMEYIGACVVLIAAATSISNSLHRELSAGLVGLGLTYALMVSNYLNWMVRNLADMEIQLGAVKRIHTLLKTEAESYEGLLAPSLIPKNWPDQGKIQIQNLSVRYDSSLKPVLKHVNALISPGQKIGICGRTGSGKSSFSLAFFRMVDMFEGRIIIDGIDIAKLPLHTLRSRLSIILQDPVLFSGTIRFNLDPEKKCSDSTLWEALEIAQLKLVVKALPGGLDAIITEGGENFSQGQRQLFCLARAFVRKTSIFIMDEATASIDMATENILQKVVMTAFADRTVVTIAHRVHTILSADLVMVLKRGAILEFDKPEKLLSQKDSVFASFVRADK
smiles,measurement,setting,value
"CCN(CC)c1ccc(/N=N/c2ccc(S(=O)(=O)NC(=O)NC3CCCCC3)cc2)cc1 [JB253, (E)-N-(cyclohexylcarbamoyl)-4-((4-(diethylamino)phenyl)diazenyl)benzenesulfonamide]",solubility,[1],≥ 100 µM
same,lower affinity to SUR1 compared to glimepiride,"[2]; [3H]-glibenclamide displacement, unaffected by illumination",1000 fold
same,IC50,"[2]; displacement of [3H]-glibenclamide, SUR1-expressing HEK293t cells, n = 3, cis-state may relax thermally during washing",17.6 µM
same,pKa,[3],4.76
same,fluo-2-loaded population responding to illumination with synchronous Ca^2+ rises,"[4]; 50 µM JB253, 405 nm laser, n = 10 recordings",54%
same,responsive X-Rhod-1-loaded cells,"[4]; 50 µM JB253, 405 nm, n = 3 recordings",63%
same,stimulation of [Ca^2+]i,"[4]; concentration-response, dark",largely ineffective
same,concentration-response curve for glimepiride in the presence of trans-JB253,"[4]; saturating concentration (100 µM) of trans-JB253, dark",right-shifted
same,"cytotoxicity to islets (necrosis indices, cell death versus DMSO-alone)",[5],did not appear to be cytotoxic
same,block of KATP (hyperpolarizing) currents,[6],reversibly blocked; also recorded: only blocks the KATP current during illumination
